# From paper PMC5908160, “Inhibition of sperm motility in male macaques with EP055, a potential non-hormonal male contraceptive” (PLoS ONE, 2018)
# Assay: Blood constituents and health monitoring in rhesus males after EP055 infusion
# Type: in vivo, Macaca mulatta
# Parameters: Hematocrit: unit not given here
# Settings: post low dose 75–80 mg/kg
# Excerpt: The physical and behavioral condition of animals are monitored daily at ONPRC. Additional monitoring by Division of Comparative Medicine and/or clinical veterinary staff was provided immediately, at 1 hr, 2 hr and 6 hr post-administration of the contraceptive compound, and daily for up to 30 days after the final drug injection. Criteria used to assess animal health and welfare include: stool and urine quality and quantity, appetite and attitude (bright and alert, quiet, lethargic), pain (not eating, not moving, hunched over, lethargy/disinterest), vomiting, diarrhea, nausea, dehydration (unkempt coat, lack of urine production), and signs of wounds of injury. In addition, the ONPRC Standardized Pain Scoring system is used post-surgically to monitor an animal’s progress and improvement over time. Major criteria include animal appearance, posture, activity (including stool and urine production), vocalization and atypical behaviors.
# Prior to infusion of EP055, each male was sedated with ketamine by the surgical staff at ONPRC and transported to the operating room. After positioning in dorsal recumbency, the male was intubated and placed under inhalant (isoflurane) anesthesia. Bilateral intravenous catheters were placed in cephalic veins, one for infusion and one for back-up. A percutaneous arterial line was placed in the right femoral artery for direct blood pressure measurement. Invasive blood pressure, heart rate, SpO2, and respirations were monitored by the surgical staff throughout the procedure. Initially, the low doses of EP055 in 5% DMSO-PBS 7.6 was infused by i.v. at 75-80 mg/kg, using a Medfusion 3500 pump (Smiths Medical, St. Paul, MN), and was started at a low flow rate ([…]). In 3 of 4 males, a 5-10% increase in blood pressure and heart rate were noted within the first 2-3 minutes of infusion of EP055. In these cases, the infusion was temporarily suspended until these parameters subsequently declined to normal. The infusion rate was then doubled to 1.2 ml/kg/min after 5-10 minutes and the final volume of EP055 infusate was administered. Blood pressure and heart rate remained normal throughout the rest of the infusion interval. The total volume of EP055 infusate ranged from 72 ml – 136 ml, depending upon the weight of the animal, and the duration of infusion was 10-13 minutes. Following completion of the infusion, all animals recovered normally. Animals were monitored by clinical veterinary staff immediately, at 1 hr, 2 hr and 6-8 hr post-infusion, and daily for up to 30 days after the final infusion of EP055. […] Two weeks after the infusion of the low dose and collection of the next set of baseline semen samples, males were infused with the high dose of EP055 (125-130 mg/kg) as described above, and monitored similarly.
# Blood was collected from the brachial vein at the time of each semen collection, and used to determine complete blood counts and serum biochemistry tests (including electrolytes, glucose, lipids, proteins, enzymes and metabolic by-products) as performed in the Clinical Pathology Laboratory in the Division of Comparative Medicine at ONPRC.
compound,measurement,setting,value
COC(=O)NNc1nc(Nc2ccc(NC(C)=O)c(O)c2)nc(SCC(=O)O)n1 [EP055],GGT,6-8 hrs,70.5 ± 2.1- U/l
same,GLUC,6-8 hrs,89.0 ± 6.7 mg/dL
same,Hematocrit,6-8 hrs,44.3 ± 1.0
same,Hemoglobin,6-8 hrs,14.4 ± 0.3 g/dL
same,Leukocytes,6-8 hrs,12.8 ± 2.7 x 10^3/mm^3
same,Lymphocytes,6-8 hrs,18.8 ± 1.9%
same,MCH,6-8 hrs,24.5 ± 0.3 pg/cell
same,MCHC,6-8 hrs,32.6 ± 0.1 g/dL
same,MCV,6-8 hrs,75.1 ± 1.2 fl/cell
same,Magnesium,6-8 hrs,1.8 ± 0.0 mg/dL
same,Monocytes,6-8 hrs,4.9 ± 0.1%
same,Neutrophils,6-8 hrs,9.5 ± 2.0 x 10^3/mm^3
same,Phosphorus,6-8 hrs,5.3 ± 0.3 mg/dL
same,Platelets,6-8 hrs,268.5 ± 38.7 x 10^6
same,Potassium,6-8 hrs,3.9 ± 0.2 mEq/l
same,Sodium,6-8 hrs,149.0 ± 0.9 mEq/l
same,Total Bilirubin,6-8 hrs,0.2 ± 0.1 mg/dL
same,Total Protein,6-8 hrs,7.5 ± 0.0 g/dL
same,Triglycerides,6-8 hrs,63.8 ± 5.7 mg/dL
same,ALT,28-30 hrs,54.3 ± 3.8 U/l
same,AST,28-30 hrs,51.0 ± 6.6 U/l
same,Albumin,28-30 hrs,4.8 ± 0.1 g/dL
same,Alkaline Phosphatase,28-30 hrs,128.5 ± 12.5 U/l
same,BUN,28-30 hrs,15.0 ± 1.5 mg/dL
same,Basophils,28-30 hrs,0.6 ± 0.1%
same,CREAT,28-30 hrs,1.0 ± 0.0 mg/dL
same,Chloride,28-30 hrs,110.3 ± 0.9 mEq/l
same,Cholesterol,28-30 hrs,149.5 ± 19.5 mg/dL
same,Eosinophils,28-30 hrs,1.4 ± 0.1%
same,Erythrocytes,28-30 hrs,5.9 ± 0.3 x 10^6/mm^3
same,GGT,28-30 hrs,72.5 ± 3.9 U/l
same,GLUC,28-30 hrs,90.0 ± 10.3 mg/dL
same,Hematocrit,28-30 hrs,43.9 ± 1.9
same,Hemoglobin,28-30 hrs,14.4 ± 0.7 g/dL
same,Leukocytes,28-30 hrs,11.8 ± 3.1 x 10^3/mm^3
same,Lymphocytes,28-30 hrs,31.1 ± 4.8%
same,MCH,28-30 hrs,24.4 ± 0.2 pg/cell
same,MCHC,28-30 hrs,32.7 ± 0.3 g/dL
same,MCV,28-30 hrs,74.7 ± 1.0 fl/cell
same,Magnesium,28-30 hrs,1.7 ± 0.1 mg/dL
same,Monocytes,28-30 hrs,5.7 ± 0.3%
same,Neutrophils,28-30 hrs,7.2 ± 2.0 x 10^3/mm^3
same,Phosphorus,28-30 hrs,4.0 ± 0.5 mg/dL
same,Platelets,28-30 hrs,185.8 ± 35.8 x 10^6
same,Potassium,28-30 hrs,4.2 ± 0.2 mEq/l
same,Sodium,28-30 hrs,149.0 ± 1.1 mEq/l
same,Total Bilirubin,28-30 hrs,0.2 ± 0.0 mg/dL
same,Total Protein,28-30 hrs,7.7 ± 0.2 g/dL
same,Triglycerides,28-30 hrs,75.3 ± 28.9 mg/dL
same,ALT,78 hrs,60.3 ± 12.2 U/l
same,AST,78 hrs,73.8 ± 33.6 U/l
same,Albumin,78 hrs,4.7 ± 0.1 g/dL
same,Alkaline Phosphatase,78 hrs,125.3 ± 16.3 U/l
same,BUN,78 hrs,18.8 ± 3.2 mg/dL
same,Basophils,78 hrs,0.6 ± 0.1%
same,CREAT,78 hrs,1.0 ± 0.0 mg/dL
same,Chloride,78 hrs,108.0 ± 0.8 mEq/l
same,Cholesterol,78 hrs,144.0 ± 17.0 mg/dL
same,Eosinophils,78 hrs,2.0 ± 0.5%
same,Erythrocytes,78 hrs,5.5 ± 0.2 x 10^6/mm^3
same,GGT,78 hrs,65.3 ± 2.7 U/l
same,GLUC,78 hrs,91.5 ± 7.4 mg/dL
same,Hematocrit,78 hrs,40.6 ± 0.8
same,Hemoglobin,78 hrs,13.3 ± 0.3 g/dL
same,Leukocytes,78 hrs,11.2 ± 3.3 x 10^3/mm^3
same,Lymphocytes,78 hrs,33.7 ± 5.0%
same,MCH,78 hrs,24.5 ± 0.3 pg/cell
same,MCHC,78 hrs,32.8 ± 0.1 g/dL
same,MCV,78 hrs,74.6 ± 1.2 fl/cell
same,Magnesium,78 hrs,1.8 ± 0.0 mg/dL
same,Monocytes,78 hrs,5.5 ± 0.5%
same,Neutrophils,78 hrs,6.6 ± 2.2 x 10^3/mm^3
same,Phosphorus,78 hrs,4.1 ± 0.6 mg/dL
same,Platelets,78 hrs,270.8 ± 25.8 x 10^6
same,Potassium,78 hrs,4.0 ± 0.1 mEq/l
same,Sodium,78 hrs,147.0 ± 1.2 mEq/l
same,Total Bilirubin,78 hrs,0.2 ± 0.0 mg/dL
same,Total Protein,78 hrs,7.6 ± 0.1 g/dL
same,Triglycerides,78 hrs,57.3 ± 14.1 mg/dL
same,ALT,Recovery,31.7 ± 2.3 U/l
same,AST,Recovery,42.3 ± 2.6 U/l
same,Albumin,Recovery,4.3 ± 0.1 g/dL
same,Alkaline Phosphatase,Recovery,79.0 ± 2.3 U/l
same,BUN,Recovery,16.5 ± 1.9 mg/dL
same,Basophils,Recovery,0.5 ± 0.1%
same,CREAT,Recovery,0.8 ± 0.0 mg/dL
same,Chloride,Recovery,107.0 ± 0.0 mEq/l
same,Cholesterol,Recovery,138.7 ± 19.3 mg/dL
same,Eosinophils,Recovery,1.4 ± 0.3%
same,Erythrocytes,Recovery,5.7 ± 0.2- x 10^6/mm^3
same,GGT,Recovery,62.3 ± 1.8 U/l
same,GLUC,Recovery,58.3 ± 4.5 mg/dL
same,Hematocrit,Recovery,42.4 ± 1.1
same,Hemoglobin,Recovery,13.8 ± 0.4 g/dL
same,Leukocytes,Recovery,5.9 ± 1.0 x 10^3/mm^3
same,Lymphocytes,Recovery,44.8 ± 5.4%
same,MCH,Recovery,24.1 ± 0.4 pg/cell
same,MCHC,Recovery,32.5 ± 0.2 g/dL
same,MCV,Recovery,74.1 ± 0.9 fl/cell
same,Magnesium,Recovery,1.9 ± 0.1 mg/dL
same,Monocytes,Recovery,6.4 ± 0.2%
same,Neutrophils,Recovery,4.5 ± 1.7 x 10^3/mm^3
same,Phosphorus,Recovery,5.1 ± 0.2 mg/dL
same,Platelets,Recovery,295.7 ± 11.8 x 10^6
same,Potassium,Recovery,4.0 ± 0.1 mEq/l
same,Sodium,Recovery,146.7 ± 0.3 mEq/l
same,Total Bilirubin,Recovery,0.2 ± 0.0 mg/dL
same,Total Protein,Recovery,7.1 ± 0.1 g/dL
same,Triglycerides,Recovery,38.0 ± 6.9 mg/dL
